Measurements from patent publication US6753345B2, “7-hexanolytaxol and methods for preparing the same” (Hauser, Inc., priority 1998, dated 2004).
Converted amounts (≈) assume the structure as drawn. Read-outs that look alike come from different tables or passages of the source.

Tests used:
[1] = tested on: MCF7; assay: SRB cytotoxicity screening assay (Breast Cancer)
[2] = tested on: LOX-IMVI; conditions: LOX-IMVI (Melanoma); PG=0; 48 hour incubation
[3] = tested on: UO-31; assay: SRB cytotoxicity screening assay (Renal Cancer)
[4] = tested on: HL-60(TB); conditions: HL-60(TB) (Leukemia); PG=0; 48 hour incubation
[5] = tested on: TK-10; assay: SRB cytotoxicity screening assay (Renal Cancer)
[6] = tested on: 26 cell lines; assay: 26 cell line growth inhibition screen, sulforhodamine stain; assay type: cell-based; conditions: 48 h
[7] = tested on: HOP-62; assay: SRB cytotoxicity screening assay (Non-Small Cell Lung Cancer)
[8] = tested on: OVCAR-6; assay: SRB cytotoxicity screening assay (Ovarian)
[9] = tested on: NCI-H522; assay: SRB cytotoxicity screening assay (Non-Small Cell Lung Cancer)
[10] = tested on: DU-145; assay: SRB cytotoxicity screening assay (Prostate Cancer)
[11] = tested on: SR; assay: SRB cytotoxicity screening assay (Leukemia); conditions: Homo sapiens, SR, 48 h
[12] = tested on: HCC-2998; assay: SRB cytotoxicity screening assay (Colon Cancer)
[13] = tested on: M14; assay: SRB cytotoxicity screening assay (Melanoma)
[14] = tested on: U251; assay: SRB cytotoxicity screening assay (CNS Cancer)
[15] = tested on: MALME-3M; assay: SRB cytotoxicity screening assay (Melanoma)
[16] = tested on: RXF-393; assay: SRB cytotoxicity screening assay (Renal Cancer); conditions: Homo sapiens, RXF 393, 48 h
[17] = tested on: NCI-H322M; assay: cells; conditions: Homo sapiens, 48 h, read-out: Log10 GI50 (converted)
[18] = tested on: OVCAR-5; assay: SRB cytotoxicity screening assay (Ovarian)
[19] = tested on: UACC-257; assay: SRB cytotoxicity screening assay (Melanoma)
[20] = tested on: OVCAR-3; assay: SRB cytotoxicity screening assay (Ovarian)
[21] = tested on: CCRF-CEM cells; assay: G2/M arrest; assay type: cell-based; conditions: minimum concentration that results in 60% of CCRF-CEM cells to arrest in G2-M
[22] = tested on: NCI-H322M; conditions: NCI-H322M (Non-Small Cell Lung Cancer); PG=0; 48 hour incubation
[23] = tested on: RPMI-8226; assay: SRB cytotoxicity screening assay (Leukemia); conditions: Homo sapiens, RPMI-8226, 48 h
[24] = tested on: SK-MEL-2; assay: SRB cytotoxicity screening assay (Melanoma)
[25] = tested on: EKVX; assay: SRB cytotoxicity screening assay (Non-Small Cell Lung Cancer)
[26] = tested on: NCI-H226; assay: as above
[27] = read-out: Log10 GI50 (converted)
[28] = read-out: Log10 LC50 (converted)

With `CCCCCC(=O)O[C@H]1C[C@H]2OC[C@@]2(OC(C)=O)[C@H]2[C@H](OC(=O)c3ccccc3)[C@]3(O)C[C@H](OC(=O)[C@H](O)[C@@H](NC(=O)c4ccccc4)c4ccccc4)C(C)=C([C@@H](OC(C)=O)C(=O)[C@]12C)C3(C)C` [7-hexanoyltaxol] the GI50 ([1]; Homo sapiens, MCF7, 48 h, read-out: Log10 GI50 (converted)) was under 0.01 µM, the CC50 ([1]; Homo sapiens, MCF7, 48 h, read-out: Log10 LC50 (converted)) was over 100 µM and the “Log10 TGI” value ([1]; MCF7 (Breast Cancer), PG=0, 48 hour incubation) was −4.73 molar. For the same compound, the “Log10 TGI” value [2] was −4.68 molar, the GI50 ([3]; Homo sapiens, UO-31, 48 h, read-out: Log10 GI50 (converted)) was 0.0646 µM and the CC50 ([3]; Homo sapiens, UO-31, 48 h, read-out: Log10 LC50 (converted)) was over 100 µM. For the same compound, the “Log10 TGI” value ([3]; UO-31 (Renal Cancer), PG=0, 48 hour incubation) was over −4.00 molar, the “Log10 TGI” value [4] was under −8.00 molar and the GI50 ([5]; Homo sapiens, TK-10, 48 h, read-out: Log10 GI50 (converted)) was 0.0324 µM. The CC50 ([5]; Homo sapiens, TK-10, 48 h, read-out: Log10 LC50 (converted)) was over 100 µM, the “Log10 TGI” value ([5]; TK-10 (Renal Cancer), PG=0, 48 hour incubation) was −4.45 molar and the IC50 ([6]; read-out: Mean IC50 (26 cell line Mean Growth inhibition IC50 value)) was 8 ng/mL (≈ 8.4 nM). For the same compound, the IC50 ([6]; read-out: Min IC50 (lowest observed IC50 value in 26 cell line screen)) was 1 ng/mL (≈ 1.05 nM), the “Log10 TGI” value ([7]; HOP-62 (Non-Small Cell Lung Cancer), PG=0, 48 hour incubation) was −6.52 molar and the GI50 ([7]; Homo sapiens, HOP-62, 48 h, read-out: Log10 GI50 (converted)) was 0.0141 µM. The CC50 ([7]; Homo sapiens, HOP-62, 48 h, read-out: Log10 LC50 (converted)) was 89.1 µM, the GI50 ([8]; 48 h, read-out: Log10 GI50 (converted)) was under 0.01 µM and the CC50 ([8]; 48 h, read-out: Log10 LC50 (converted)) was 85.1 µM. For the same compound, the “Log10 TGI” value ([8]; OVCAR-6 (Ovarian), PG=0, 48 hour incubation) was −4.88 molar, the GI50 ([9]; Homo sapiens, NCI-H522, 48 h, read-out: Log10 GI50 (converted)) was under 0.01 µM and the CC50 ([9]; Homo sapiens, NCI-H522, 48 h, read-out: Log10 LC50 (converted)) was over 100 µM. The “Log10 TGI” value ([9]; NCI-H522 (Non-Small Cell Lung Cancer), PG=0, 48 hour incubation) was −5.91 molar, the “Log10 TGI” value ([10]; DU-145 (Prostate Cancer), PG=0, 48 hour incubation) was −7.00 molar and the GI50 ([10]; Homo sapiens, DU-145, 48 h, read-out: Log10 GI50 (converted)) was under 0.01 µM. It also gave a CC50 ([10]; Homo sapiens, DU-145, 48 h, read-out: Log10 LC50 (converted)) of 37.2 µM, a GI50 [11, 27] of under 0.01 µM and a CC50 [11, 28] of over 100 µM. For the same compound, the “Log10 TGI” value ([12]; HCC-2998 (Colon Cancer), PG=0, 48 hour incubation) was −7.35 molar, the GI50 ([12]; Homo sapiens, HCC 2998, 48 h, read-out: Log10 GI50 (converted)) was under 0.01 µM and the CC50 ([12]; Homo sapiens, HCC 2998, 48 h, read-out: Log10 LC50 (converted)) was 8.32 µM. The GI50 ([13]; Homo sapiens, M14, 48 h, read-out: Log10 GI50 (converted)) was under 0.01 µM, the CC50 ([13]; Homo sapiens, M14, 48 h, read-out: Log10 LC50 (converted)) was 1.58 µM and the “Log10 TGI” value ([13]; M14 (Melanoma), PG=0, 48 hour incubation) was −7.94 molar. For the same compound, the GI50 ([14]; Homo sapiens, U-251, 48 h, read-out: Log10 GI50 (converted)) was under 0.01 µM, the CC50 ([14]; Homo sapiens, U-251, 48 h, read-out: Log10 LC50 (converted)) was 32.4 µM and the “Log10 TGI” value ([14]; U251 (CNS Cancer), PG=0, 48 hour incubation) was −4.98 molar. For the same compound, the GI50 ([15]; Homo sapiens, Malme-3M, 48 h, read-out: Log10 GI50 (converted)) was under 0.01 µM, the CC50 ([15]; Homo sapiens, Malme-3M, 48 h, read-out: Log10 LC50 (converted)) was 81.3 µM and the “Log10 TGI” value ([15]; MALME-3M (Melanoma), PG=0, 48 hour incubation) was −4.65 molar. It also gave a GI50 [16, 27] of under 0.01 µM, a CC50 [16, 28] of 91.2 µM and a GI50 [17] of 0.02 µM. For the same compound, the GI50 ([18]; Homo sapiens, OVCAR-5, 48 h, read-out: Log10 GI50 (converted)) was under 0.01 µM, the CC50 ([18]; Homo sapiens, OVCAR-5, 48 h, read-out: Log10 LC50 (converted)) was 33.9 µM and the “Log10 TGI” value ([18]; OVCAR-5 (Ovarian), PG=0, 48 hour incubation) was −5.47 molar. The CC50 ([19]; Homo sapiens, UACC-257, 48 h, read-out: Log10 LC50 (converted)) was over 100 µM, the “Log10 TGI” value ([19]; UACC-257 (Melanoma), PG=0, 48 hour incubation) was −4.00 molar and the GI50 ([20]; Homo sapiens, OVCAR-3, 48 h, read-out: Log10 GI50 (converted)) was under 0.01 µM. The CC50 ([20]; Homo sapiens, OVCAR-3, 48 h, read-out: Log10 LC50 (converted)) was 20.9 µM, the “Log10 TGI” value ([20]; OVCAR-3 (Ovarian), PG=0, 48 hour incubation) was −7.65 molar and the “G2/M arrest MED” value [21] was 0.10 µg/mL. The “Log10 TGI” value [22] was −4.51 molar, the GI50 [23, 27] was under 0.01 µM and the CC50 [23, 28] was over 100 µM. For the same compound, the GI50 ([24]; Homo sapiens, SK-MEL-2, 48 h, read-out: Log10 GI50 (converted)) was 0.0933 µM, the CC50 ([24]; Homo sapiens, SK-MEL-2, 48 h, read-out: Log10 LC50 (converted)) was over 100 µM and the “Log10 TGI” value ([24]; SK-MEL-2 (Melanoma), PG=0, 48 hour incubation) was −4.56 molar. The “Log10 TGI” value ([25]; EKVX (Non-Small Cell Lung Cancer), PG=0, 48 hour incubation) was −4.29 molar, the GI50 ([25]; Homo sapiens, EKVX, 48 h, read-out: Log10 GI50 (converted)) was 0.398 µM and the CC50 ([25]; Homo sapiens, EKVX, 48 h, read-out: Log10 LC50 (converted)) was over 100 µM. The GI50 ([26]; Homo sapiens, NCI-H226, 48 h, read-out: Log10 GI50 (converted)) was under 0.01 µM, the CC50 ([26]; Homo sapiens, NCI-H226, 48 h, read-out: Log10 LC50 (converted)) was over 100 µM and the “Log10 TGI” value ([26]; NCI-H226 (Non-Small Cell Lung Cancer), PG=0, 48 hour incubation) was −4.76 molar.
